Results as given in patent US6451805B1, “Substituted pyrazole derivatives for the treatment of cardiocirculatory diseases” (Bayer Aktiengesellschaft, priority 1999, dated 2002).

Experiments:
[1] = system: soluble guanylate cyclase; assay: Stimulation of soluble guanylate cyclase in primary endothelial cells (intracellular cGMP); assay type: cell-based; conditions: primary rabbit aortic endothelial cells, test substance final concentration 1 μM, 10 min incubation, with or without NO donor (SNP 1 μM)
Description: (§1) To determine the cardiovascular actions, the following investigations were carried out: in in vitro investigations on cells of vascular origin, the influx on guanylate cyclase-dependent cGMP formation was tested with and without NO donor. The anti-aggregatory properties were shown on human platelets stimulated with collagen. The vasorelaxant action was determined in rabbit aortal rings precontracted with phenylephrine. The hypotentive action was investigated in anaesthetized rats.
Primary endothelial cells were isolated from rabbit aortas by treatment with collagenase soln. The cells were then cultured in culture medium at 37° C./5% CO2 until confluence was reached. For the investigations, the cells were passaged, inoculated into 24-hole cell culture plates and subcultured until reaching confluence (˜2×10^5 cells/hollow). For the stimulation of endothelial guanylate cyclase, the culture medium was aspirated and the cells were washed once with Ringer solution. After removing the Ringer solution, the cells were incubated for 10 minutes at 37° C./5% CO2 in stimulation buffer with or without NO donor (sodium nitroprusside, SNP, 1 μM). […] The supernatants containing the intracellular cGMP were then removed and the cGMP concentration was determined by means of the cGMP-SPA system (Amersham Buchler, Brunswick).

[2] = system: anaesthetized rats; assay: Blood pressure measurements in anaesthetized rats; assay type: in vivo, rat; conditions: male Wistar rats, oral
Description: as §1
Male Wistar rats having a body weight of 300-350 g are anaesthetized with thiopental (100 mg/kg i.p.) After tracheotomy, a catheter is inserted in the femoral artery for blood pressure measurement. The substances to be tested are administered orally in various doses by means of stomach tube as a suspension in Tylose solution.

Compound | melting point | also measured
CN1CCC([S+]([O-])c2ccc(-c3nn(Cc4ccccc4F)c4ncccc34)o2)CC1 (centres unmarked) [Example 52] | 279 °C | 
Cc1nc(-c2nn(Cc3ccccc3F)c3ncccc23)oc1CO [Example 68] | 145 °C | 
[O-][S+](NCc1ccccc1)c1ccc(-c2nn(Cc3ccccc3F)c3ncccc23)o1 (centres unmarked) [Example 51] | 126 °C | 
CC(N[S+]([O-])c1ccc(-c2nn(Cc3ccccc3F)c3ncccc23)o1)c1ccccc1 (centres unmarked) [Example 64] | 132 °C | 
OCc1ccc(-c2nn(Cc3ccccc3)c3ncncc23)o1 [Example 34] | 165 °C | 
COCCOc1cnc2c(c1)c(-c1ccc(CO)o1)nn2Cc1ccccc1F [Example 42] | 106 °C | 
[O-][S+](Nc1cccc(Cl)c1)c1ccc(-c2nn(Cc3ccccc3F)c3ncccc23)o1 (centres unmarked) [Example 66] | 110 °C | 
Cc1cc(C)c2c(-c3ccc(CO)o3)nn(Cc3ccccc3)c2n1 [Example 43] | 155 °C | 
O=CNc1nc(-c2ccccc2)nc2c1c(-c1ccc(CO)o1)nn2Cc1ccccc1F [Example 40] | 189 °C | 
O=Cc1ccc(-c2nn(Cc3ccccc3F)c3nc(O)ccc23)o1 [Example 32] |  | cGMP increase (%) [1]: 135%
Nc1nc(-c2ccccc2)nc2c1c(-c1ccc(CO)o1)nn2Cc1ccccc1F [Example 39] | 225 °C | 
CCCCCCN[S+]([O-])c1ccc(-c2nn(Cc3ccccc3F)c3ncccc23)o1 (centres unmarked) [Example 59] | 114 °C | 
CC(C)NS(=O)(=O)c1ccc(-c2nn(Cc3ccccc3F)c3ncccc23)o1 [Example 61] | 109 °C | 
[O-][S+](NCc1cccc2ccccc12)c1ccc(-c2nn(Cc3ccccc3F)c3ncccc23)o1 (centres unmarked) [Example 63] | 158 °C | 
CCCCCCCCN[S+]([O-])c1ccc(-c2nn(Cc3ccccc3F)c3ncccc23)o1 (centres unmarked) [Example 53] | 69 °C | 
[O-][S+](NC1CCCCCC1)c1ccc(-c2nn(Cc3ccccc3F)c3ncccc23)o1 (centres unmarked) [Example 60] | 161 °C | 
[O-][S+](c1ccc(-c2nn(Cc3ccccc3F)c3ncccc23)o1)N1CCOCC1 (centres unmarked) [Example 54] | 122 °C | 
OCc1ccc(-c2nn(Cc3ccccc3)c3ncccc23)o1 [Example 13, 1-Benzyl-3-(5-hydroxymethyl-2-furyl)-1-H-pyrazolo[3,4-b]pyridine] |  | Max blood pressure fall ([2]; dose 10 mg/kg): −13 mm Hg; Time (of max blood pressure fall) ([2]; dose 10 mg/kg): 60 min; Max blood pressure fall ([2]; dose 30 mg/kg): −23 mm Hg; Time (of max blood pressure fall) ([2]; dose 30 mg/kg): 60 min
CN(C)c1ncnc2c1c(-c1ccc(CO)o1)nn2Cc1ccccc1F [Example 37] | 94 °C | 
Nc1ncnc2c1c(-c1ccc(CO)o1)nn2Cc1ccccc1F [Example 36] | 207 °C | 
CC(C)N[S+]([O-])c1ccc(-c2nn(Cc3ccccc3F)c3ncccc23)o1 (centres unmarked) [Example 56] | 136 °C | 
Cc1coc(-c2nn(Cc3ccccc3F)c3ncccc23)n1 [Example 67] | 106 °C | 
Cc1nc2c(c(-c3ccc(CO)o3)nn2Cc2ccccc2)c(C)c1C [Example 44] | 180 °C | 
[O-][S+](c1ccc(-c2nn(Cc3ccccc3F)c3ncccc23)o1)N1CCCC1 (centres unmarked) [Example 65] | 107 °C | 
[O-][S+](NC1CC1)c1ccc(-c2nn(Cc3ccccc3F)c3ncccc23)o1 (centres unmarked) [Example 57] | 138 °C | 
CC(C)CN[S+]([O-])c1ccc(-c2nn(Cc3ccccc3F)c3ncccc23)o1 (centres unmarked) [Example 58] | 109 °C | 
Nc1ncnc2c1c(-c1ccc(CO)o1)nn2Cc1ccccc1 [Example 35] | 213 °C | 
Nc1nc(N)c2c(-c3ccc(CO)o3)nn(Cc3ccccc3F)c2n1 [Example 38] | 205 °C | 
CN(C)[S+]([O-])c1ccc(-c2nn(Cc3ccccc3F)c3ncccc23)o1 (centres unmarked) [Example 50] | 107 °C | 
